Results taken from the supplement of paper PMC10307832.

How the values were obtained:
Test in all cases: relative viability (nuclei count vs DMSO), 5 days (fraction); higher = more cells survive
[1] = compound: CC1=C(C(=NN1)C)CC2=C(C3=C(S2)N(C(=O)N(C3=O)C)CC(C)C)C(=O)N4C[C@@H](CO4)O + COc1cc2c(Oc3ccc(NC(=O)C4(C(=O)Nc5ccc(F)cc5)CC4)cc3F)ccnc2cc1OCCCN1CCOCC1 [Foretinib] (partner 0.25 µM)
Outline: (§1)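 For relative viability, nuclei counts in treated wells were divided by those in vehicle wells. Lung cancer cell lines had been pin-tool dosed in 1536-well plates the day after seeding and cultured for 5 days, then fixed and stained in one step (final 0.05% Triton X-100, 1% formaldehyde, 1 ug/ml Hoechst) and imaged at 4×. Doses were one drug alone or a fixed anchor-drug dose plus five library-drug doses (not always all listed) in √10 steps, and values are duplicate-plate medians.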

[2] = compound: CC1=C(C(=NN1)C)CC2=C(C3=C(S2)N(C(=O)N(C3=O)C)CC(C)C)C(=O)N4C[C@@H](CO4)O + CS(=O)(=O)CCNCc1ccc(-c2ccc3ncnc(Nc4ccc(OCc5cccc(F)c5)c(Cl)c4)c3c2)o1 [Lapatinib] (partner 2 µM)
Outline: as §1

[3] = compound: Cc1ccccc1C(C(=O)NC1CCCCC1)N(C(=O)Cn1ccnc1C)c1cccc(F)c1 [IDH-C35] + COc1cccc2cc(-c3nc([C@H]4CC[C@H](C(=O)O)CC4)n4ncnc(N)c34)[nH]c12 [OSI-027] (partner 0.5 µM)
Outline: as §1

[4] = compound: Cc1ccccc1C(C(=O)NC1CCCCC1)N(C(=O)Cn1ccnc1C)c1cccc(F)c1 [IDH-C35] + NC(=O)Nc1cc(-c2cccc(F)c2)sc1C(=O)N[C@H]1CCCNC1 [AZD7762] (partner 0.2 µM)
Outline: as §1

Row | Cell Line | relative viability ([1]; first compound 0.0025 µM) | relative viability ([1]; first compound 0.007906 µM) | relative viability ([1]; first compound 0.025 µM) | relative viability ([1]; first compound 0.07906 µM) | relative viability ([1]; first compound 0.25 µM) | relative viability ([2]; first compound 0.0025 µM) | relative viability ([2]; first compound 0.007906 µM) | relative viability ([2]; first compound 0.025 µM) | relative viability ([2]; first compound 0.07906 µM) | relative viability ([2]; first compound 0.25 µM) | relative viability ([3]; first compound 0.08 µM) | relative viability ([3]; first compound 0.253 µM) | relative viability ([3]; first compound 0.8 µM) | relative viability ([3]; first compound 2.53 µM) | relative viability ([3]; first compound 8 µM) | relative viability ([4]; first compound 0.08 µM) | relative viability ([4]; first compound 0.253 µM) | relative viability ([4]; first compound 0.8 µM) | relative viability ([4]; first compound 2.53 µM) | relative viability ([4]; first compound 8 µM)
1 | LXF-289 | 0.963 | 0.926 | 1.02 | 0.994 | 1.03 | 0.909 | 0.855 | 0.875 | 0.891 | 0.975 | 0.79 | 0.761 | 0.757 | 0.783 | 0.709 | 1.1 | 1.06 | 1.13 | 1.06 | 1.19
2 | NCI-H23 | 1.05 | 0.992 | 0.965 | 1.07 | 1.16 | 1.21 | 1.26 | 0.931 | 1.27 | 1.28 | 0.582 | 0.635 | 0.558 | 0.392 | 0.453 | 0.239 | 0.253 | 0.229 | 0.359 | 0.272
3 | NCI-H322M | 1.07 | 0.969 | 1.04 | 0.977 | 0.98 | 0.626 | 0.605 | 0.601 | 0.55 | 0.524 | 0.585 | 0.566 | 0.628 | 0.549 | 0.511 | 0.532 | 0.65 | 0.476 | 0.538 | 0.546
4 | NCI-H358 | 0.636 | 0.76 | 0.664 | 0.766 | 0.791 | 0.58 | 0.425 | 0.478 | 0.514 | 0.434 | 0.776 | 0.757 | 0.698 | 0.775 | 0.756 | 0.609 | 0.544 | 0.477 | 0.492 | 0.426
5 | NCI-H460 | 1.01 | 1.09 | 0.949 | 1.01 | 1.11 | 0.959 | 1.34 | 0.996 | 1.08 | 1.28 | 0.659 | 0.757 | 0.681 | 0.644 | 0.602 | 0.623 | 0.663 | 0.609 | 0.586 | 0.578
6 | NCI-H596 | 1.08 | 1.12 | 0.691 | 0.702 | 0.99 | 1.12 | 1.19 | 1.14 | 0.982 | 1.09 | 0.787 | 0.806 | 0.709 | – | 0.629 | 0.959 | 1.14 | 1.01 | 1.05 | 1.26
7 | NCI-H647 | 1.23 | 1.27 | 1.13 | 1.19 | 1.2 | 1.28 | 1.35 | 1.04 | 1.15 | 1.19 | 0.683 | 0.676 | 0.573 | 0.569 | 0.665 | 0.489 | 0.488 | 0.424 | 0.42 | 0.418
8 | NCI-H650 | 1.07 | 0.937 | 0.938 | 0.977 | 1.08 | 0.939 | 0.0037 | 0.753 | 0.893 | 0.956 | 0.558 | 0.571 | 0.466 | – | 0.509 | 1.04 | 1.26 | 1.13 | – | 0.97
